Measured values taken from US20200190073A1, “SUBSTITUTED SUCCINIMIDE DERIVATIVES AS PESTICIDES” (BASF SE, priority 2017, published 2020).
Read-outs that look alike come from different tables or passages of the source.

Legend:
Format in all cases: in vivo
[1] = system: Red Spider Mite (Tetranychus kanzawai); assay: B.9 Red spider mite, sprayed cowpea beans; settings: read-out: mortality in comparison with untreated controls
Summary of the method: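 Potted cowpea beans aged 4-5 days were sprayed with compound in 1:1 water:acetone plus 0.01% surfactant, air dried, then infested with ≥30 mites. Kept at about 25-27° C and 50-60% relative humidity; percent mortality scored 72 h after treatment.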

[2] = system: Rice Green Leafhopper (Nephotettix virescens); assay: B.8 Rice green leafhopper, sprayed rice seedlings; settings: read-out: mortality in comparison with untreated controls
Summary of the method: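 Potted rice seedlings, washed 24 h earlier, were sprayed with 5-6 ml of compound in 1:1 acetone:water plus 0.01% surfactant. Once dry, they were caged and infested with 10 adults, then held at about 28-29° C and 50-60% RH. Percent mortality was scored at 72 h.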

[3] = system: Boll Weevil (Anthonomus grandis); assay: B.5 Boll weevil, insect diet with eggs; settings: 120 h, read-out: mortality in comparison with untreated controls
Summary of the method: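 Compounds in 75% water/25% DMSO sprayed at several concentrations (5 μl, two replicates) onto insect diet in 96-well microtiter plates holding 5-10 A. grandis eggs. After 5 days at about 25±1° C and 75±5% relative humidity, egg and larval mortality scored visually.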

[4] = system: Southern Armyworm (Spodoptera eridania); assay: B.10 Southern armyworm, sprayed lima bean plants; settings: 96 h, read-out: mortality in comparison with untreated controls
Experimental: B.10 Southern Armyworm (Spodoptera eridania)
The active compounds were formulated in cyclohexanone as a 10,000 ppm solution supplied in tubes. The tubes were inserted into an automated electrostatic sprayer equipped with an atomizing nozzle and they served as stock solutions for which lower dilutions were made in 50% acetone:50% water (v/v). A nonionic surfactant (Kinetic®) was included in the solution at a volume of 0.01% (v/v).
Lima bean plants (variety Sieva) were grown 2 plants to a pot and selected for treatment at the 1st true leaf stage. Test solutions were sprayed onto the foliage by an automated electrostatic plant sprayer equipped with an atomizing spray nozzle. The plants were dried in the sprayer fume hood and then removed from the sprayer. Each pot was placed into perforated plastic bags with a zip closure. About 10 to 11 armyworm larvae were placed into the bag and the bags zipped closed. Test plants were maintained in a growth room at about 250C and about 20-40% relative humidity for 4 days, avoiding direct exposure to fluorescent light (24 hour photoperiod) to prevent trapping of heat inside the bags. Mortality and reduced feeding were assessed 4 days after treatment, compared to untreated control plants.

[5] = system: Green Soldier Stink Bug (Nezara viridula); assay: B.11 Green soldier stink bug, sprayed soybean pods; settings: 120 h, read-out: mortality in comparison with untreated controls
Summary of the method: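 Ten late 3rd-instar N. viridula on soybean pods in Petri dishes were sprayed with compound in 1:1 water:acetone plus 0.01% surfactant. Dishes were held at about 25° C. Percent mortality was scored after 5 days.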

[6] = system: Green Peach Aphid (Myzus persicae); assay: B.2 Green peach aphid, artificial diet, systemic; settings: 72 h, read-out: mortality in comparison with untreated controls
Summary of the method: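 Adult aphids (5-8 per well) fed through a membrane on artificial diet containing compound formulated in 75% water/25% DMSO, with two replications per concentration. Incubation lasted 3 days at about 23±1° C and 50±5% relative humidity. Mortality and fecundity were then assessed visually.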

[7] = system: Vetch Aphid (Megoura viciae); assay: B.3 Vetch aphid, broad bean leaf disks; settings: foliar, 120 h, read-out: mortality in comparison with untreated controls
Summary of the method: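 Broad bean leaf disks sprayed with compounds in 25% DMSO/water at various concentrations, two replicates, then air-dried and infested with 5-8 adult Megoura viciae (contact/systemic exposure). After 5 days at about 23±1 °C and 50±5% RH, mortality and fecundity scored visually.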

[8] = system: Tobacco Budworm (Heliothis virescens); assay: B.4 Tobacco budworm, insect diet with eggs; settings: 120 h, read-out: mortality in comparison with untreated controls
Summary of the method: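 Wells held insect diet and 15–25 H. virescens eggs; compounds at several concentrations, formulated in 75:25 v/v water:DMSO, were sprayed at 10 μl onto the diet in two replicates. After 5 days at about 28±1 °C and 80±5% relative humidity, egg and larval mortality was scored visually.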

[9] = 2500 ppm, egg and larval mortality, 5 days

CCN1C(=O)CC(NC(=O)c2ccc(C3=NOC(c4cc(Cl)c(F)c(Cl)c4)(C(F)(F)F)C3)cc2Cl)C1=O (stereo not shown) [Compound I-1-3]
> 75%: mortality at 300 ppm ([1]; 72 h) | mortality at 300 ppm ([2]; 72 h) | mortality at 2500 ppm [3] | mortality at 10 ppm [4] | mortality at 300 ppm [5] | mortality at 2500 ppm [6] | mortality at 2500 ppm [7] | mortality at 2500 ppm [8]

CN1C(=O)CC(NC(=O)c2ccc(C3=NOC(c4cc(Cl)c(F)c(Cl)c4)(C(F)(F)F)C3)c3c2CCC3)C1=O (stereo not shown) [Compound I-1-10]
> 75%: mortality at 300 ppm ([1]; 72 h) | mortality at 300 ppm ([2]; 72 h) | mortality at 2500 ppm [3] | mortality at 10 ppm [4] | mortality at 300 ppm [5] | mortality at 2500 ppm [6] | mortality at 2500 ppm [7] | mortality at 2500 ppm [8]

CCN1C(=O)C[C@@H](NC(=O)c2ccc(C3=NOC(c4ccc(F)c(Cl)c4)(C(F)(F)F)C3)cc2Cl)C1=O (stereo partly shown) [Compound I-1-53]
> 75%: mortality at 300 ppm ([1]; 300 ppm, 72 hours after treatment) | mortality at 300 ppm ([2]; 300 ppm, adults on sprayed rice seedlings, after 72 hours) | mortality at 2500 ppm [3, 9] | mortality at 300 ppm ([5]; 300 ppm, late 3rd instar, after 5 days) | mortality at 2500 ppm ([6]; 2500 ppm, adult aphids on treated diet, 3 days) | mortality at 2500 ppm ([7]; 2500 ppm, sprayed leaf disks, 5 days) | mortality at 2500 ppm [8, 9]

CN1C(=O)CC(NC(=O)c2ccc(C3=NOC(c4cc(Cl)c(F)c(Cl)c4)(C(F)(F)F)C3)cc2Cl)C1=O (stereo not shown) [Compound I-1-2, 2-Chloro-4-[5-(3,5-dichloro-4-fluoro-phenyl)-5-(trifluoromethyl)-4H-isoxazol-3-yl]-N-(1-methyl-2,5-dioxo-pyrrolidin-3-yl)benzamide]
> 75%: mortality at 300 ppm ([1]; 72 h) | mortality at 300 ppm ([2]; 72 h) | mortality at 2500 ppm [3] | mortality at 10 ppm [4] | mortality at 300 ppm [5] | mortality at 2500 ppm [6] | mortality at 2500 ppm [7] | mortality at 2500 ppm [8]

CN1C(=O)C[C@@H](NC(=O)c2ccc(C3=NOC(c4cc(Cl)c(F)c(Cl)c4)(C(F)(F)F)C3)cc2Cl)C1=O (stereo partly shown) [Compound I-1-13]
> 75%: mortality at 300 ppm ([1]; 72 h) | mortality at 300 ppm ([2]; 72 h) | mortality at 2500 ppm [3] | mortality at 10 ppm [4] | mortality at 300 ppm [4] | mortality at 300 ppm [5] | mortality at 2500 ppm [6] | mortality at 2500 ppm [7] | mortality at 2500 ppm [8]
